Assay results published in patent US20040116451A1, “Method of treatment” (Pfizer Inc., priority 2002, published 2004).

System: men with lower urinary tract symptoms
Experiment: 12-Week double-blind study in men with lower urinary tract symptoms (IPSS and bladder diary)
Format: in vivo
Details: for improvement in IPSS irritative domain: subjects with baseline IPSS irritative domain score ≧β; for improvement in IPSS irritative domain / improvement in irritative LUTS (urgency, daytime micturition frequency, nocturia; bladder diary): controlled release formulation, 12 weeks; for improvement in irritative LUTS (urgency, daytime micturition frequency, nocturia; bladder diary): subjects with irritative LUTS at baseline, compared with placebo
Method: A 12-Week Study in men with lower urinary tract symptoms was undertaken in which the IPSS (International Prostate Symptom Score) was recorded at baseline during, and at the end of, double-blind treatment. The IPSS is composed of seven questions, each with potential responses of 0-5 on a Likert scale. These questions are grouped into two validated domains: the irritative domain (urgency, frequency and nocturia) and the obstructive domain (incomplete emptying, intermittency, weak stream and straining to begin). […] The average daily incidence of urgency, daytime micturition frequency and nocturia (the irritative symptoms) for each subject were derived from this diary. In this study, there were […] treatment groups: 6 mg fixed dose of 4-amino-6,7-dimethoxy-2-(5-methanesulfonamido-1,2,3,4-tetrahydroisoquinol-2-yl)-5-(2-pyridyl)quinazoline, 6 mg escalated to 12 mg at Week 4 of the compound, and placebo. Controlled release formulations according to International Application Publication No. WO 03/032956 were used in each case.

[1] = 12 mg dose escalation group (6 mg escalated to 12 mg at Week 4)

COc1cc2nc(N3CCc4c(cccc4NS(C)(=O)=O)C3)nc(N)c2c(-c2ccccn2)c1OC [4-amino-6,7-dimethoxy-2-(5-methanesulfonamido-1,2,3,4-tetrahydroisoquinol-2-yl)-5-(2-pyridyl)quinazoline]
attenuation of irritative LUTS (overall study result, FIGS. 1 to 4) (12-week study in men with LUTS, controlled release formulations): clinically significant attenuation of irritative LUTS
improvement in IPSS irritative domain (6 mg fixed dose group): improvement in this domain of the IPSS was similarly confirmed
improvement in IPSS irritative domain [1]: improvement in this domain of the IPSS was similarly confirmed
improvement in irritative LUTS (urgency, daytime micturition frequency, nocturia; bladder diary) (6 mg fixed dose group): improvement in these symptoms was confirmed
improvement in irritative LUTS (urgency, daytime micturition frequency, nocturia; bladder diary) [1]: improvement in these symptoms was confirmed
